Reference: patent US11655268B2, “Nucleoside or nucleotide derivatives, and uses thereof” (ST Pharm Co., Ltd., priority 2018, dated 2023)
Structures can show the parent of a compound that is named as a salt.

Experiments:
[1] = system: DENV; assay: Reduction in viral infection, dengue virus in Vero cells, immunofluorescence (4G2 antibody); assay type: cell-based, Dengue virus New Guinea C (NGC); conditions: 72 h, read-out: EC50 DENV
[2] = Cytotoxicity (CC50) in Vero cells; conditions: African green monkey, CC50 (DENV), Vero cells, DENV test
[3] = in vitro; conditions: human
[4] = system: MERS-CoV; assay: microbe, parasite or virus in culture; assay type: cell-based, MERS virus (MERS-CoV/KOR/KNIH/002_05_2015); conditions: Middle East respiratory syndrome-related coronavirus, Huh-7, 72 h, read-out: EC50 MERS-CoV
[5] = system: Influenza virus B/Lee/40; assay: Cytopathic effect reduction, influenza B Lee in MDCK cells, MTT; assay type: cell-based; conditions: for Selectivity index FluB Lee: CC50/EC50; for EC50: MDCK, 72 h, read-out: Anti-Flu activity EC50 FluB Lee
[6] = in vitro; conditions: dog
[7] = in vitro; conditions: human; remark: listed apart in the source
[8] = system: hCoV (229E); assay: microbe, parasite or virus in culture; assay type: cell-based, Human coronavirus hCoV 229E; conditions: MRC5, 72 h; MRC-5 cells, day 3 after infection; read-out: EC50 hCoV (229E)

| Compound | EC50 [1] [µM] | CC50 at 3 days [2] [µM] | CC50 at 3 days [3] [µM] | EC50 [4] [µM] | Selectivity index FluB Lee [5] | EC50 [5] [µM] | CC50 at 3 days [6] [µM] | CC50 [6] [µM] | CC50 [7] [µM] | EC50 [8] [µM] |
| --- | --- | --- | --- | --- | --- | --- | --- | --- | --- | --- |
| O=C(Nc1ccn(C2O[C@H](CO)[C@@H](O)[C@H]2F)c(=O)n1)c1cccnc1 (stereo in doubt) [Example 26, N-(1-((2S,3R,4R,5R)-3-fluoro-4-hydroxy-5-(hydroxymethyl)tetrahydrofuran-2-yl)-2-oxo-1,2-dihydropyrimidin-4-yl)nicotinamide] | 57.7 | > 100 |  |  |  |  |  |  |  |  |
| Cc1ccc(C(=O)Nc2ccn(C3O[C@H](CO)[C@@H](O)[C@H]3F)c(=O)n2)cn1 (stereo in doubt) [Example 32, N-(1-((2S,3R,4R,5R)-3-fluoro-4-hydroxy-5-(hydroxymethyl)tetrahydrofuran-2-yl)-2-oxo-1,2-dihydropyrimidin-4-yl)-6-methylnicotinamide] |  |  | > 100 | > 100 |  |  |  |  |  |  |
| Cc1cncc(C(=O)Nc2ccn(C3O[C@H](CO)[C@@H](O)[C@H]3F)c(=O)n2)n1 (stereo in doubt) [Example 34, N-(1-((2S,3R,4R,5R)-3-fluoro-4-hydroxy-5-(hydroxymethyl)tetrahydrofuran-2-yl)-2-oxo-1,2-dihydropyrimidin-4-yl)-6-methylpyrazine-2-carboxamide] |  |  | > 100 | > 100 | >9.0 | 11.1 | > 100 |  |  |  |
| O=C(Nc1ccn(C2O[C@H](CO)[C@@H](O)[C@H]2F)c(=O)n1)c1ccc(F)cn1 (stereo in doubt) [Example 35, 5-Fluoro-N-(1-((2S,3R,4R,5R)-3-fluoro-4-hydroxy-5-(hydroxymethyl)tetrahydrofuran-2-yl)-2-oxo-1,2-dihydropyrimidin-4-yl)picolinamide] |  |  | > 100 | > 100 | >2.7 | 37.4 | > 100 |  |  |  |
| O=C(Nc1ccn(C2O[C@H](CO)[C@@H](O)[C@H]2F)c(=O)n1)c1ccc(C(F)(F)F)nc1 (stereo in doubt) [Example 41, N-(1-((2S,3R,4R,5R)-3-fluoro-4-hydroxy-5-(hydroxymethyl)tetrahydrofuran-2-yl)-2-oxo-1,2-dihydropyrimidin-4-yl)-6-(trifluoromethyl)nicotinamide] |  |  |  |  | >5.3 | 18.9 | > 100 |  |  |  |
| O=C(Nc1ccn(C2O[C@H](CO)[C@@H](O)[C@H]2F)c(=O)n1)c1ccc(F)nc1 (stereo in doubt) [Example 42, 6-Fluoro-N-(1-((2S,3R,4R,5R)-3-fluoro-4-hydroxy-5-(hydroxymethyl)tetrahydrofuran-2-yl)-2-oxo-1,2-dihydropyrimidin-4-yl)nicotinamide] |  |  |  |  | >5.5 | 18.3 | > 100 |  |  |  |
| NC12CC3CC(CC(C3)C1)C2 [AMT, amantadine hydrochloride, reference compound] |  |  |  |  |  | > 100 |  | > 100 |  |  |
| Cc1cccnc1C(=O)Nc1ccn([C@@H]2O[C@H](CO)[C@@H](O)C2(F)F)c(=O)n1 [Example 12, N-(1-((2R,4R,5R)-3,3-difluoro-4-hydroxy-5-(hydroxymethyl)tetrahydrofuran-2-yl)-2-oxo-1,2-dihydropyrimidin-4-yl)-3-methylpicolinamide] | 6.16 | > 100 |  |  | >2.0 | 49.1 | > 100 |  | > 100 | 12.2 |
| Cc1cccc(C(=O)Nc2ccn([C@@H]3O[C@H](CO)[C@@H](O)C3(F)F)c(=O)n2)n1 [Example 13, N-(1-((2R,4R,5R)-3,3-difluoro-4-hydroxy-5-(hydroxymethyl)tetrahydrofuran-2-yl)-2-oxo-1,2-dihydropyrimidin-4-yl)-6-methylpicolinamide] | 1.98 | > 100 |  |  | >12.8 | 7.8 | > 100 |  | > 100 | 5.8 |
| O=C(Nc1ccn([C@@H]2O[C@H](CO)[C@@H](O)C2(F)F)c(=O)n1)c1ccc(C(F)(F)F)nc1 [Example 14, N-(1-((2R,4R,5R)-3,3-difluoro-4-hydroxy-5-(hydroxymethyl)tetrahydrofuran-2-yl)-2-oxo-1,2-dihydropyrimidin-4-yl)-6-(trifluoromethyl)nicotinamide] |  |  |  |  | >32.3 | 3.1 | > 100 |  |  |  |
| Cn1cc(C(=O)Nc2ccn([C@@H]3O[C@H](CO)[C@@H](O)C3(F)F)c(=O)n2)cn1 [Example 15, N-(1-((2R,4R,5R)-3,3-difluoro-4-hydroxy-5-(hydroxymethyl)tetrahydrofuran-2-yl)-2-oxo-1,2-dihydropyrimidin-4-yl)-1-methyl-1H-pyrazole-4-carboxamide] |  |  |  |  | 12.5 | 8 | > 100 |  |  |  |
| O=C(Nc1ccn([C@@H]2O[C@H](CO)[C@@H](O)C2(F)F)c(=O)n1)c1cccc(-c2ccccc2)n1 [Example 17, N-(1-((2R,4R,5R)-3,3-difluoro-4-hydroxy-5-(hydroxymethyl)tetrahydrofuran-2-yl)-2-oxo-1,2-dihydropyrimidin-4-yl)-6-phenylpicolinamide] | < 1.2 | 58.9 |  |  | >41.7 | 2.4 | > 100 |  |  |  |
| O=C(Nc1ccn([C@@H]2O[C@H](CO)[C@@H](O)C2(F)F)c(=O)n1)c1ccc([N+](=O)[O-])cn1 [Example 19, N-(1-((2R,4R,5R)-3,3-difluoro-4-hydroxy-5-(hydroxymethyl)tetrahydrofuran-2-yl)-2-oxo-1,2-dihydropyrimidin-4-yl)-5-nitropicolinamide] | < 1.2 | < 1.2 |  |  | >83.3 | < 1.2 | > 100 |  |  |  |
| Cl.Nc1ccc(C(=O)Nc2ccn([C@@H]3O[C@H](CO)[C@@H](O)C3(F)F)c(=O)n2)nc1 [Example 20, 5-amino-N-(1-((2R,4R,5R)-3,3-difluoro-4-hydroxy-5-(hydroxymethyl)tetrahydrofuran-2-yl)-2-oxo-1,2-dihydropyrimidin-4-yl)picolinamide-hydrochloride] | 1.6 | 75.9 |  |  | >5.1 | 19.5 |  | > 100 |  |  |
| COc1ccc(C(=O)Nc2ccn([C@@H]3O[C@H](CO)[C@@H](O)C3(F)F)c(=O)n2)nc1 [Example 21, N-(1-((2R,4R,5R)-3,3-difluoro-4-hydroxy-5-(hydroxymethyl)tetrahydrofuran-2-yl)-2-oxo-1,2-dihydropyrimidin-4-yl)-5-methoxypicolinamide] | 1.3 | > 100 |  |  | >4.5 | 22.3 | > 100 |  |  |  |
| COc1ccc(C(=O)Nc2ccn([C@@H]3O[C@H](CO)[C@@H](O)C3(F)F)c(=O)n2)cn1 [Example 22, N-(1-((2R,4R,5R)-3,3-difluoro-4-hydroxy-5-(hydroxymethyl)tetrahydrofuran-2-yl)-2-oxo-1,2-dihydropyrimidin-4-yl)-6-methoxynicotinamide] | < 1.2 | < 1.2 |  |  | >4.1 | 24.4 | > 100 |  |  |  |
| O=C(Nc1ccn([C@@H]2O[C@H](CO)[C@@H](O)C2(F)F)c(=O)n1)c1ccc(Cl)nc1 [Example 23, 6-Chloro-N-(1-((2R,4R,5R)-3,3-difluoro-4-hydroxy-5-(hydroxymethyl)tetrahydrofuran-2-yl)-2-oxo-1,2-dihydropyrimidin-4-yl)nicotinamide] | < 1.2 | < 1.2 |  |  | >16.1 | 6.2 | > 100 |  |  |  |
| Cc1nccc(C(=O)Nc2ccn([C@@H]3O[C@H](CO)[C@@H](O)C3(F)F)c(=O)n2)n1 [Example 24, N-(1-((2R,4R,5R)-3,3-difluoro-4-hydroxy-5-(hydroxymethyl)tetrahydrofuran-2-yl)-2-oxo-1,2-dihydropyrimidin-4-yl)-2-methylpyrimidin-4-carboxamide] | < 1.2 | 55.4 |  |  | >83 | < 1.2 | > 100 |  |  |  |
| O=C(Nc1ccn([C@@H]2O[C@H](CO)[C@@H](O)C2(F)F)c(=O)n1)c1ccc(-c2ccccc2)cn1 [Example 25, N-(1-((2R,4R,5R)-3,3-difluoro-4-hydroxy-5-(hydroxymethyl)tetrahydrofuran-2-yl)-2-oxo-1,2-dihydropyrimidin-4-yl)-5-phenylpicolinamide] | < 1.2 | 29.5 |  |  | >16.4 | 6.1 | > 100 |  |  |  |
| CCC(CC)O[C@@H]1C=C(C(=O)O)C[C@H](N)[C@H]1NC(C)=O [OSV-C, oseltamivir carboxylate, reference compound] |  |  |  |  |  | 1.46 |  |  |  |  |
| NC(=O)c1ncn([C@@H]2O[C@H](CO)[C@@H](O)[C@H]2O)n1 [RBV, ribavirin, reference compound] |  |  |  |  |  | 40.6 |  |  |  |  |
